{"source": "patent US9988430B2", "about": "“Stable GLP-1 based GLP-1/glucagon receptor co-agonists” (Novo Nordisk A/S, priority 2014, dated 2018)", "note": "*1 amine or outer side, *2 acyl side, *3 side chain or, on linkers, in order; H or OH if unused. Where a SMILES comes first, the peptide text is derived from it. Bridges are numbered along the chain shown (N, C = ends). Roman numbers before positions name the chains, in order. Side-chain parts run from the residue outwards. [ ]: non-standard residue; d: D form. The star is where a group is joined. C18 diacid = O=C(O)CCCCCCCCCCCCCCCCC(=O)*; γGlu = O=C(O)[C@H](CCC(=O)[*:2])N[*:1]; Desaminohistidyl = O=C(CCc1c[nH]cn1)*; Ac4c = NC1(C(=O)O)CCC1; AEEA = NCCOCCOCC(=O)O; Aib = CC(C)(N)C(=O)O", "data": [{"target": "T1, human GLP-1 receptor (Homo sapiens, UniProt P43220)", "T1 construct": "expressed in transfected cells; host or cells: membranes of BHK cells, parent line BHKTS13, clone FCW467-12A", "T1 sequence (P43220 24-463)": "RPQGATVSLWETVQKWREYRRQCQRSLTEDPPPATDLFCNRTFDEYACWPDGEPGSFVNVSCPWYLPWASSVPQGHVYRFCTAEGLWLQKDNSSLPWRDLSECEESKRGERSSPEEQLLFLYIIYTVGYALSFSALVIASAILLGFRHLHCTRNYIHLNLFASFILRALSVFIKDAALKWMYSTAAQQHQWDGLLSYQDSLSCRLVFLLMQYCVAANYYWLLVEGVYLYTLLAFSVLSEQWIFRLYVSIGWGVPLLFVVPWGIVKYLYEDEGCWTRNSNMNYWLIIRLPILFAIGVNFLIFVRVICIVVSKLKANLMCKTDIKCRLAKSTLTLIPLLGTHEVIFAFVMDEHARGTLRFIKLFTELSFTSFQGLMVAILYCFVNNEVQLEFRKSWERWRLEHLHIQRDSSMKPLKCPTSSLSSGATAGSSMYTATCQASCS", "assay": "Assay (II)(a): GLP-1 receptor binding, [125I]GLP-1 displacement, SPA on BHK membranes", "conditions": "displacement of [125I]GLP-1, membranes with human GLP-1 receptor; read-out: IC50 GLP-1R", "description": "Assay (II): GLP-1 and Glucagon Receptor Binding The purpose of this assay is to test the in vitro receptor binding activity of the GLP-1 derivatives of the invention. (a) GLP-1 Receptor Binding The GLP-1 receptor (GLP-1R) binding is a measure of the affinity of a derivative for the human GLP-1 receptor. The GLP-1 receptor binding of each derivatives were determined with competitive binding, displacing [^125I]GLP-1 bound to GLP-1 receptors expressed in cell membranes associated with wheat germ agglutinin (WGA) scintillation proximity assay (SPA) beads. Each derivative was added in a series of concentrations to isolated membranes comprising the human GLP-1 receptor and displacement of the labelled radioligand was monitored. The receptor binding was reported as the concentration at which half of the labelled ligand is displaced from the receptor, the IC^50 value. The following chemicals were used in the assay: MEM w/o phenol red (Gibco 11880-028), Pen/strep (Invitrogen 15140-122), G418 (Invitrogen 10131-027), 1 M Hepes (Gibco 15630), EDTA (Invitrogen 15575-038), PBS (Invitrogen 14190-094), fetal calf serum (Invitrogen 16140-071), EGTA, MgCl2 (Merck 1.05832.1000), Tween 20 (Amresco 0850C335), SPA particles (wheat germ agglutinin (WGA) SPA beads, Perkin Elmer RPNQ0001), [125I]-GLP-1]-(7-36)NH2 (produced in-house), OptiPlate™-96 (Perkin Elmer). Buffer 1 consisted of 20 mM Na-HEPES plus 10 mM EDTA and pH was adjusted to 7.4. Buffer 2 consisted of 20 mM Na-HEPES plus 0.1 mM EDTA and pH was adjusted to 7.4. Assay buffer consisted of 50 mM HEPES supplemented with 5 mM EGTA, 5 mM MgCl2, 0.005% Tween 20 and pH was adjusted to 7.4. A 0.02% albumin stock consisted of HSA dissolved at 0.02% (w/v) in assay buffer. The cells used in this assay (clone FCW467-12A) were BHK cells with BHKTS13 as a parent cell line. The cells express the human GLP-1 receptor. The cells were grown at 5% CO2 in DMEM, 10% fetal calf serum, 1% Pen/Strep (Penicillin/Streptomycin) and 1.0 mg/ml of the selection marker G418. To make a membrane preparation the cells were grown to approximately 80% confluence. The cells were washed twice in phosphate-buffered saline and harvested. The cells were pelleted using a brief centrifugation and the cell pellet was kept on ice. The cell pellet was homogenised with ULTRA-THURRAX dispersing instrument for 20-30 seconds in a suitable amount of buffer 1 (e.g., 10 ml). The homogenate was centrifuged for 15 minutes. The pellet was re-suspended (homogenised) in 10 ml buffer 2 and centrifuged. This step was repeated once more. The resulting pellet was re-suspended in buffer 2 and the protein concentration was determined. The membranes were aliquoted and stored at minus 80° C. • 1. For the receptor binding assay 50 μl of the assay buffer was added to each well of an assay plate. • 2. Test compounds were serially diluted to give the following concentrations: 8×10EE-7 M, 8×10EE-8 M, 8×10EE-9 M, 8×10EE-10 M, 8×10EE-11 M, 8×10EE-12 M and 8×10EE-13 M. Twenty-five μl were added to appropriate wells in the assay plate. • 3. Cell membrane aliquots were thawed and diluted to their working concentration. Fifty μl were added to each well in the assay plate. • 4. WGA SPA beads were suspended in assay buffer at 20 mg/ml. The suspension was diluted to 10 mg/ml in assay buffer just prior to addition to the assay plate. Fifty μl were added to each well in the assay plate. • 5. The incubation was started by adding 25 μl of 480 pM solution of [125I]-GLP-1]-(7-36)NH2 to each well of the assay plate. A 25 μl aliquot was reserved for measuring total counts/well. • 6. The assay plate was incubated for 2 h at 30° C. • 7. The assay plate was centrifuged for 10 min. • 8. The assay plate was read in a Perkin Elmer TopCount NXT instrument. Calculations The data from the TopCount instrument were transferred to GraphPad Prism software. The software averaged the values for the replicates and performed a non-linear regression. IC50 values were calculated by the software and reported in nM. […]", "units": {"IC50": "nM"}, "values": [{"smiles": "CC[C@H](C)[C@H](NC(=O)[C@H](Cc1ccccc1)NC(=O)[C@H](CCC(=O)O)NC(=O)[C@H](CCCNC(=N)N)NC(=O)[C@H](C)NC(=O)[C@H](C)NC(=O)[C@H](CCC(N)=O)NC(=O)[C@H](CCCCNC(=O)CC[C@H](NC(=O)CC[C@H](NC(=O)COCCOCCNC(=O)COCCOCCNC(=O)CC[C@H](NC(=O)CCCCCCCCCCCCCCCCC(=O)O)C(=O)O)C(=O)O)C(=O)O)NC(=O)[C@H](CCC(=O)O)NC(=O)[C@H](CC(C)C)NC(=O)[C@H](Cc1ccc(O)cc1)NC(=O)[C@H](CCCCN)NC(=O)[C@H](CO)NC(=O)[C@@H](NC(=O)[C@H](CC(=O)O)NC(=O)[C@H](CO)NC(=O)[C@@H](NC(=O)[C@H](Cc1ccccc1)NC(=O)[C@@H](NC(=O)CNC(=O)[C@H](Cc1c[nH]cn1)NC(=O)C1(NC(=O)CCc2c[nH]cn2)CCC1)[C@@H](C)O)[C@@H](C)O)C(C)C)C(=O)N[C@@H](C)C(=O)N[C@@H](Cc1c[nH]c2ccccc12)C(=O)N[C@@H](CC(C)C)C(=O)N[C@@H](CC(C)C)C(=O)N[C@@H](CCCCN)C(=O)N[C@H](C(N)=O)[C@@H](C)O", "note": "[Example 33, N^ε22-[(4S)-4-carboxy-4-[[(4S)-4-carboxy-4-[[2-[2-[2-[[2-[2-[2-[[(4S)-4-carboxy-4-(17-carboxyheptadecanoylamino)butanoyl]amino]ethoxy]ethoxy]acetyl]amino]ethoxy]ethoxy]acetyl]amino]butanoyl]amino]butanoyl]-[Imp7,Acb8,His9,Lys18,Lys22,Arg26,Leu33,Thr35]-GLP-1-(7-35)-peptide amide] (Desaminohistidyl-[Ac4c]HGTFTSDVSKYLEK([γGlu-γGlu-AEEA-AEEA-γGlu-C18 diacid])QAAREFIAWLLKT-NH2)", "IC50": 0.2}, {"smiles": "CC[C@H](C)[C@H](NC(=O)[C@H](Cc1ccccc1)NC(=O)[C@H](CCC(=O)O)NC(=O)[C@H](CCCNC(=N)N)NC(=O)[C@H](C)NC(=O)[C@H](C)NC(=O)[C@H](CCC(N)=O)NC(=O)[C@H](CCC(=O)O)NC(=O)[C@H](CCC(=O)O)NC(=O)[C@H](CC(C)C)NC(=O)[C@H](Cc1ccc(O)cc1)NC(=O)[C@H](CCCCN)NC(=O)[C@H](CO)NC(=O)[C@@H](NC(=O)[C@H](CC(=O)O)NC(=O)[C@H](CO)NC(=O)[C@@H](NC(=O)[C@H](Cc1ccccc1)NC(=O)[C@@H](NC(=O)CNC(=O)[C@H](Cc1c[nH]cn1)NC(=O)C(C)(C)NC(=O)CCc1c[nH]cn1)[C@@H](C)O)[C@@H](C)O)C(C)C)C(=O)N[C@@H](C)C(=O)N[C@@H](Cc1c[nH]c2ccccc12)C(=O)N[C@@H](CC(C)C)C(=O)N[C@@H](CC(C)C)C(=O)N[C@@H](CCCCNC(=O)CC[C@H](NC(=O)CC[C@H](NC(=O)[C@H](CO)NC(=O)CNC(=O)[C@H](CCC(=O)O)NC(=O)[C@H](CO)NC(=O)CNC(=O)CCCCCCCCCCCCCCCCC(=O)O)C(=O)O)C(=O)O)C(=O)N[C@H](C(=O)O)[C@@H](C)O", "note": "[Example 27, N^ε34-[(4S)-4-carboxy-4-[[(4S)-4-carboxy-4-[[(2S)-2-[[2-[[(2S)-4-carboxy-2-[[(2S)-2-[[2-(17-carboxyheptadecanoylamino)acetyl]amino]-3-hydroxypropanoyl]amino]butanoyl]amino]acetyl]amino]-3-hydroxypropanoyl]amino]butanoyl]amino]butanoyl]-[Imp7,Aib8,His9,Lys18,Glu22,Arg26,Leu33,Thr35]-GLP-1-(7-35)-peptide] (I: Desaminohistidyl-[Aib]HGTFTSDVSKYLEEQAAREFIAWLLKT-OH / II: {C18 diacid}-GSEGS[γGlu][γGlu]; amide I:27-II:C)", "IC50": 2.3}, {"smiles": "CC[C@H](C)[C@H](NC(=O)[C@H](Cc1ccccc1)NC(=O)[C@H](CCC(=O)O)NC(=O)[C@H](CCCNC(=N)N)NC(=O)[C@H](C)NC(=O)[C@H](C)NC(=O)[C@H](CCC(N)=O)NC(=O)[C@H](CCC(=O)O)NC(=O)[C@H](CCC(=O)O)NC(=O)[C@H](CC(C)C)NC(=O)[C@H](Cc1ccc(O)cc1)NC(=O)[C@H](CCCCN)NC(=O)[C@H](CO)NC(=O)[C@@H](NC(=O)[C@H](CC(=O)O)NC(=O)[C@H](CO)NC(=O)[C@@H](NC(=O)[C@H](Cc1ccccc1)NC(=O)[C@@H](NC(=O)CNC(=O)[C@H](Cc1c[nH]cn1)NC(=O)C(C)(C)NC(=O)CCc1c[nH]cn1)[C@@H](C)O)[C@@H](C)O)C(C)C)C(=O)N[C@@H](C)C(=O)N[C@@H](Cc1c[nH]c2ccccc12)C(=O)N[C@@H](CC(C)C)C(=O)N[C@H](C(=O)N[C@@H](CCCCNC(=O)COCCOCCNC(=O)COCCOCCNC(=O)CC[C@H](NC(=O)CC[C@H](NC(=O)CCCCCCCCCCCCCCCCC(=O)O)C(=O)O)C(=O)O)C(=O)N[C@H](C(N)=O)[C@@H](C)O)[C@@H](C)CC", "note": "[Example 42, N^ε34-[2-[2-[2-[[2-[2-[2-[[(4S)-4-carboxy-4-[[(4S)-4-carboxy-4-(17-carboxyheptadecanoylamino)butanoyl]amino]butanoyl]amino]ethoxy]ethoxy]acetyl]amino]ethoxy]ethoxy]acetyl]-[Imp7,Aib8, His9,Lys18,Glu22,Arg26,Ile33,Thr35]-GLP-1-(7-35)-peptide amide] (Desaminohistidyl-[Aib]HGTFTSDVSKYLEEQAAREFIAWLIK([AEEA-AEEA-γGlu-γGlu-C18 diacid])T-NH2)", "IC50": 0.2}, {"smiles": "CC[C@H](C)[C@H](NC(=O)[C@H](Cc1ccccc1)NC(=O)[C@H](CCC(=O)O)NC(=O)[C@H](CCCNC(=N)N)NC(=O)[C@H](C)NC(=O)[C@H](C)NC(=O)[C@H](CCC(N)=O)NC(=O)[C@H](CCC(=O)O)NC(=O)[C@H](CCC(=O)O)NC(=O)[C@H](CC(C)C)NC(=O)[C@H](Cc1ccc(O)cc1)NC(=O)[C@H](CCCCN)NC(=O)[C@H](CO)NC(=O)[C@H](Cc1ccc(O)cc1)NC(=O)[C@H](CC(=O)O)NC(=O)[C@H](CO)NC(=O)[C@@H](NC(=O)[C@H](Cc1ccccc1)NC(=O)[C@@H](NC(=O)CNC(=O)[C@H](Cc1c[nH]cn1)NC(=O)C(C)(C)NC(=O)CCc1c[nH]cn1)[C@@H](C)O)[C@@H](C)O)C(=O)N[C@@H](C)C(=O)N[C@@H](Cc1c[nH]c2ccccc12)C(=O)N[C@@H](CC(C)C)C(=O)N[C@@H](CC(C)C)C(=O)N[C@@H](CCCCN)C(=O)NCC(=O)N[C@@H](CCCCNC(=O)CNC(=O)[C@H](CO)NC(=O)[C@H](CCC(=O)O)NC(=O)CNC(=O)[C@H](CO)NC(=O)CC[C@H](NC(=O)CC[C@H](NC(=O)CCCCCCCCCCCCCCCCC(=O)O)C(=O)O)C(=O)O)C(=O)NCC(=O)O", "note": "[Example 14, N^ε36-[2-[[(2S)-2-[[(2S)-4-carboxy-2-[[2-[[(2S)-2-[[(4S)-4-carboxy-4-[[(4S)-4-carboxy-4-(17-carboxyheptadecanoylamino)butanoyl]amino]butanoyl]amino]-3-hydroxypropanoyl]amino]acetyl]amino]butanoyl]amino]-3-hydroxypropanoyl]amino]acetyl]-[Imp7,Aib8,His9,Tyr16,Lys18,Glu22,Arg26,Leu33,Lys36]-GLP-1-(7-37)-peptide] (I: Desaminohistidyl-[Aib]HGTFTSDYSKYLEEQAAREFIAWLLKGKG-OH / II: {C18 diacid-γGlu-γGlu}-SGESG; amide I:29-II:C)", "IC50": 3.2}]}]}
